Reference: ChEMBL document CHEMBL1926545, “The 2,11-cyclized cembranoids: cladiellins, asbestinins, and briarellins (period 1998-2010)” (J Nat Prod, 2011)
Activity calls are given as the source filed them. No cut-off for these calls is given here.

Columns and labels:
MDA-MB-231 = test: Cytotoxicity against human MDA-MB-231 cells; format: functional, cell-based
Ca9-22 = test: Cytotoxicity against human Ca9-22 cells; format: functional, cell-based
HepG2 = test: Cytotoxicity against human HepG2 cells; format: functional, cell-based
A549 = test: Cytotoxicity against human A549 cells; format: functional, cell-based
MCF7 = test: Cytotoxicity against human MCF7 cells; format: functional, cell-based
[1] = Cytotoxicity against human Hep3B cells; format: functional, cell-based, Hep 3B2
RAW264.7 [2] = test: Antiinflammatory activity in […] RAW264.7 cells assessed as LPS-induced iNOS expression at 10 uM; format: functional
RAW264.7 [3] = test: Antiinflammatory activity in […] RAW264.7 cells assessed as LPS-induced COX-2 expression at 10 uM; format: functional
[4] = Cytostatic activity against human NSCLC-N6 cells; format: functional, cell-based
L1210 = test: Cytotoxicity against mouse L1210 cells; format: functional, cell-based
[5] = Homo sapiens, MDA-MB-231, read-out: IC50
[6] = Homo sapiens, Ca9-22, read-out: IC50
[7] = Homo sapiens, HepG2, read-out: IC50
[8] = Homo sapiens, A549, read-out: IC50
[9] = Homo sapiens, MCF7, read-out: IC50
[10] = Homo sapiens, Hep3B, read-out: IC50

Row | SMILES | IC50 (MDA-MB-231; mda-mb-231) | IC50 (Ca9-22; ca9-22) | IC50 (HepG2; hepg2) | IC50 (A549; a549) | IC50 (MCF7; mcf7) | IC50 ([1]; hep 3b2) | further results
1 | CCCC(=O)O[C@]1(C)CC[C@H](O)[C@@H](C)C[C@H]2O[C@@H]1[C@@H]1[C@@H](C(C)C)[C@H](O)C[C@@](C)(OC(C)=O)[C@@H]12 [KLYSIMPLEXIN A] | Not Active | Not Active | Not Active | Not Active | Not Active | Not Active | –
2 | C=C1C[C@H]2O[C@H]([C@@H]3[C@@H](C(C)C)[C@H](O)C[C@@](C)(OC(C)=O)[C@@H]32)[C@](C)(OC(=O)CCC)CCC1=O [KLYSIMPLEXIN B] | – | – | – | – | – | – | IC50 (MDA-MB-231; [5]): 15 µM; IC50 (Ca9-22; [6]): 3.9 µM; IC50 (HepG2; [7]): 6.4 µM; IC50 (A549; [8]): 4.3 µM; IC50 (MCF7; [9]): 6.5 µM; IC50 [1, 10]: 7.8 µM
3 | C=C1C[C@H]2O[C@H]([C@@H]3[C@@H](C(C)C)[C@H](O)C[C@@](C)(OC(C)=O)[C@@H]32)[C@](C)(OC(=O)CCC)CC[C@@H]1O [KLYSIMPLEXIN C] | Not Active | Not Active | Not Active | Not Active | Not Active | Not Active | –
4 | C=C1C[C@H]2O[C@H]([C@@H]3[C@@H](C(C)C)[C@H](O)C[C@@](C)(OC(C)=O)[C@@H]32)[C@](C)(OC(=O)CCC)CC[C@@H]1OO [KLYSIMPLEXIN D] | Not Active | Not Active | Not Active | Not Active | Not Active | Not Active | –
5 | C=C1C[C@H]2O[C@H]([C@@H]3[C@@H](C(C)C)[C@H](O)C[C@@](C)(OC(C)=O)[C@@H]32)[C@](C)(OC(C)=O)CC[C@@H]1O [KLYSIMPLEXIN E] | Not Active | Not Active | Not Active | Not Active | Not Active | Not Active | –
6 | CCCC(=O)O[C@]1(C)CC[C@H](O)[C@@](C)(O)C[C@H]2O[C@@H]1[C@@H]1[C@@H](C(C)C)[C@H](O)C[C@@](C)(OC(C)=O)[C@@H]12 [KLYSIMPLEXIN F] | Not Active | Not Active | Not Active | Not Active | Not Active | Not Active | –
7 | CC(=O)O[C@]1(C)CC[C@H](C(C)C)[C@@H]2[C@H]1[C@H]1C[C@](C)(O)[C@@H](O)CC[C@@](C)(OC(C)=O)[C@@H]2O1 [KLYSIMPLEXIN G] | Not Active | Not Active | Not Active | Not Active | Not Active | Not Active | –
8 | CCCC(=O)O[C@H]1[C@H](C(C)C)[C@@H]2[C@@H]([C@H]3/C=C(/C)[C@@H](O)CC[C@@](C)(OC(=O)CCC)[C@@H]2O3)[C@](C)(O)[C@@H]1OC(C)=O [KLYSIMPLEXIN H] | – | – | – | – | – | – | IC50 (MDA-MB-231; [5]): 8 µM; IC50 (Ca9-22; [6]): 11 µM; IC50 (HepG2; [7]): 10 µM; IC50 (A549; [8]): 5.1 µM; IC50 (MCF7; [9]): 10 µM; IC50 [1, 10]: 13 µM
9 | CCCC(=O)O[C@]1(C)CCC[C@@](C)([S+](C)[O-])C[C@H]2O[C@@H]1[C@H]1[C@@H]2[C@](C)(OC(C)=O)CC[C@@H]1C(C)C (stereo partly drawn) [KLYSIMPLEXIN SULFOXIDE A] | – | – | – | – | – | – | Activity (RAW264.7 [2]): 8.8%; Activity (RAW264.7 [3]): inactive
10 | CCCC(=O)O[C@H]1[C@H](C(C)C)[C@@H]2[C@@H]([C@H]3C[C@](C)([S+](C)[O-])CCC[C@@](C)(OC(=O)CCC)[C@@H]2O3)[C@](C)(O)[C@@H]1OC(C)=O (stereo partly drawn) [KLYSIMPLEXIN SULFOXIDE B] | – | – | – | – | – | – | Activity (RAW264.7 [2]): 18%; Activity (RAW264.7 [3]): inactive
11 | C=C1C[C@H]2O[C@H]([C@@H]3[C@@H](C(C)C)[C@H](OC(=O)CC[S+](C)[O-])[C@@H](OC(C)=O)[C@@](C)(O)[C@@H]32)[C@](C)(OC(=O)CCC)CC[C@@H]1O (stereo partly drawn) [KLYSIMPLEXIN SULFOXIDE C] | – | – | – | – | – | – | Activity (RAW264.7 [2]): 11%; Activity (RAW264.7 [3]): 7.2%
12 | C=C1C[C@@H]2O[C@@H]([C@@H]3[C@H]2[C@@](C)(OC(C)=O)[C@H](OC(C)=O)C[C@H]3C(C)C)[C@@](C)(OC(C)=O)CC[C@H]1O [LABIATIN C] | – | – | – | – | – | – | IC50 [4]: 16 µM
13 | C=C1C[C@H]2O[C@H]([C@H]3[C@@H]2[C@](C)(OC(C)=O)[C@@H](OC(C)=O)C[C@@H]3C(C)C)[C@](C)(OC(C)=O)CC[C@@H]1O [LABIATIN E] | – | – | – | – | – | – | IC50 [4]: 73 µM
14 | C=C1CC[C@H](C(C)C)[C@@H]2[C@H]1[C@H]1C[C@](C)(O)[C@@H](O)CC[C@@](C)(O)[C@@H]2O1 [SCLEROPHYTIN A] | – | – | – | – | – | – | IC50 (L1210): 0.003 µM; IC50 (A549; [8]): 57 µM
